Laboratory results taken from patent US20060035810A1, “Regulation of ins(3456)p4 signalling by a reversible kinase phosphatase and methods and compositions related thereto” (priority 2002, published 2006).

Tests used:
[1] = molecular target: T1, Ins(1,3,4,5,6)P5 1-phosphatase activity of Ins(3,4,5,6)P4 kinase (Homo sapiens, UniProt Q13572); assay: Inositol phosphate phosphatase activity assay with ADP (HPLC); format: biochemical
T1 construct: made in house; host or cells: E. coli
T1 sequence (Q13572 1-414): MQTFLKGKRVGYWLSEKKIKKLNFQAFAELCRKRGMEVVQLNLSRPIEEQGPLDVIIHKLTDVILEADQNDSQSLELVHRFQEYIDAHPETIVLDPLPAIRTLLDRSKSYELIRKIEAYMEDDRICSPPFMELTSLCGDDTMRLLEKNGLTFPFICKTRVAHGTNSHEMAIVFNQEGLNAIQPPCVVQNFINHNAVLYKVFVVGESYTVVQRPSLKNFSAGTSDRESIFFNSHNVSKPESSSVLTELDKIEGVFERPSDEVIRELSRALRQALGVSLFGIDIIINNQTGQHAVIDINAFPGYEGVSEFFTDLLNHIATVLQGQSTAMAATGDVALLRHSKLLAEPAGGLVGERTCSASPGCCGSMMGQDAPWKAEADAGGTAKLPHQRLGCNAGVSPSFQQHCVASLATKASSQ
Procedure: Ins(3,4,5,6)P4 kinase (0.4 μg) was incubated for 30 min in 100 μl phosphatase assay buffer (see Methods) either with (closed circles) or without (open circles) 5 mM ADP plus trace-amounts of either [^3H]Ins(1,3,4,5,6)P5 (panel A) [^3H]Ins(1,3,4,6)P4 (panel B), or [^3H]Ins(1,3,4,5)P4 (panel C). Samples were analyzed by HPLC (see Methods). The elution positions of Ins(1,3,4)P3 and Ins(3,4,5,6)P4 were verified with genuine standards. The elution positions of Ins(1,3,4,6)P4 (106 min, panel B) and of Ins(1,3,4,5)P4 (110 min, panel C) exclude these as products of InsP5 dephosphorylation (panel A).
Additional incubations were performed with 5 μM [^3H]Ins(1,3,4)P3 (approx. 1200 d.p.m.) plus either no Ins(1,3,4,5,6)P5 (open circles) or 5 μM non-radiolabeled Ins(1,3,4,5,6)P5 (closed circles); these reactions were assayed by HPLC (Synchropak Q100 column) and the InsP4 region of the chromatogram is shown in Panel B.
Inositol phosphate phosphatase activity was assayed in buffer containing 100 mM KCl, 20 mM HEPES pH 7.2, 5 mM ADP, 6 mM MgSO4, 0.3 mg/ml bovine serum albumin. Assays were acid-quenched, neutralized and analyzed by HPLC using a Synchropak Q100 columm (Caffrey et al., “Expanding Coincident Signaling by PTEN through its Inositol 1,3,4,5,6-Pentakisphosphate 3-phosphatase Activity,” FEBS Lett 499: 6-10 (2001)); 1 ml fractions were collected for 70 min., followed by 0.5 ml fractions. Inositol phosphate kinase activity was assayed in buffer containing 100 mM KCl, 20 mM HEPES pH 7.2, 5 mM ATP, 10 mM phosphocreatine, 6 mM MgSO4, 10 μg/ml creatine phosphokinase (Calbiochem), 0.3 mg/ml bovine serum albumin. Some assays were acid-quenched and analyzed by HPLC using a Synchropak Q100 column. Other reactions were heat-inactivated (95° C., 3 min) and analyzed by a metal dye detection, HPLC method (Mayr, “A novel metal-dye detection sysytem permits picomolar-range h.p.l.c. analysis of inositol polyphosphates from non-radioactively labelled cell or tissue specimens,” Biochem J 254: 585-591 (1988); Adelt et al., “Enzyme-assisted total synthesis of the optical antipodes D-myo-inositol 3,4,5-trisphosphate and D-myo-inositol 1,5,6-trisphosphate: aspects of their structure-activity relationship to biologically active inositol phosphates,” J Med Chem 42: 1262-1273 (1999)).

[2] = test system: calcium-activated Cl− channels; assay: Whole-cell Cl− current in CFPAC-1 cells (bio-assay for Ins(3,4,5,6)P4); format: cell-based, human; conditions: 10 μM in CFPAC-1 cells; control 54±3 pA/pF; +40 mV, free [Ca2+] 0.5 μM
Procedure: T84 cells were detached by incubation with 0.25% (w/v) trypsin/0.02% (w/v) EDTA for 5-6 min. After trypsin removal, 200 μl aliquots (1.5×10^6/ml) were seeded into the circular wells (area=0.45 cm^2) of permeable supports, made by gluing (Silastic® sealant, Dow Corning, Midland, Mich.) a Sylgard® ring to filters composed of mixed cellulose esters (Millipore Corp., Bedford, Mass.). Seeded supports were floated on culture medium and incubated for 11-14 days before being mounted in modified Snapwell holders in Using chambers (EasyMount System, Physiologics Instruments, San Diego, Calif.). Transcellular Cl^− flux was then recorded as the short-circuit current as previously described. The resistance of the monolayers were (vector) 346±44 ohms/cm^2 (mean±se, n=12) and (kinase) 354±62 ohms/cm^2 (mean±se, n=12). Whole-cell Cl^− currents in CFPAC—I cells were measured at +40 mV as previously described using an intracellular Ca^2+-BAPTA buffer to clamp free [Ca^2+] to 0.5 μM [8]. One possibility is that Ins(3,4,5,6)P4 originates by phosphorylation of an InsP3 precursor. […] Control whole-cell Cl^− current (54±3 pA/pF, n—17) was reduced to 24±3 pA/pF (n=7) by 10 μM Ins(3,4,5,6)P4.

[3] = test system: calcium-activated Cl− channels; conditions: read-out: sensitivity of calcium-activated Cl− channels to Ins(3,4,5,6)P4 (IC50); cited from earlier work

SMILES | product of ADP-dependent dephosphorylation ([1]; 5 mM ADP, trace amounts of substrate) | Vmax for dephosphorylation ([1]; with Ins(1,3,4)P3 present) [pmol/μg protein/min] | whole-cell Cl− current [2] [pA/pF] | IC50 [3] [nM]
O=P(O)(O)OC1[C@@H](OP(=O)(O)O)[C@H](OP(=O)(O)O)C(O)[C@H](OP(=O)(O)O)[C@H]1OP(=O)(O)O (stereo partly shown) [Ins(1,3,4,5,6)P5, inositol 1,3,4,5,6-pentakisphosphate] | dephosphorylated to an [^3H]InsP4 peak co-eluting upon HPLC with a standard of Ins(3,4,5,6)P4 | 82 |  | 
O=P(O)(O)OC1C(O)C(O)C(OP(=O)(O)O)C(OP(=O)(O)O)C1OP(=O)(O)O (stereo not shown) [Ins(3,4,5,6)P4, inositol 3,4,5,6-tetrakisphosphate] |  |  | 24±3 | 3000
